We go through one compound from publication PMC4749168, “Potentiation of ΔF508- and G551D-CFTR-Mediated Cl^- Current by Novel Hydroxypyrazolines” (PLoS ONE, 2016).

Values joined by “and” are separate entries in the source; they are usually repeats but may differ in a detail not shown here. Identical values can stand only once. “Also recorded” adds a separate entry of the source.

The target of assay [1] is T1, ΔF508-CFTR (Homo sapiens, UniProt P13569, DEL508-508). Kind of assay: Halide-sensitive YFP microplate reader assay of CFTR potentiation, ΔF508-CFTR. Also noted: expressed in transfected cells; host or cells: Fisher rat thyroid (FRT) cells, co-expressing halide sensor YFP-H148Q/I152L; provided by Dr. Alan Verkman. In kind it is cell-based. Particulars: FRT cells rescued at 27°C, 10 μM forskolin. On the procedure: (§1) FRT cells expressing wild type- or ΔF508-CFTR with the halide sensor YFP-H148Q/I152L were plated in 96-well black-walled microplates (Corning Inc., Corning, NY) at a density of 2 x10^4cells per well. FRT-WT-CFTR-YFP cells were incubated for 48 h at 37°C, and FRT-ΔF508-CFTR-YFP cells were incubated for 24 h at 27°C after 24 h incubation at 37°C to rescue ΔF508-CFTR localization. Assays were done using FLUO star Omega microplate reader (BMG Labtech, Ortenberg, Germany) and MARS Data Analysis Software (BMG Labtech). Each well of a 96-well plate was washed 3 times in PBS (200 μL/wash). 100 μL PBS was added to each well. Forskolin (0.1 and 10 μM for WT- and ΔF508-CFTR, respectively) and test compounds (1 μL) were added to each well. After 10 min, 96-well plates were transferred to the microplate reader preheated to 37°C for fluorescence assay. Each well was assayed individually for CFTR-mediated I^- influx by recording fluorescence continuously (200 ms per point) for 2 s (baseline), then 100 μL of 140 mM I^- solution was added at 2 s and then YFP fluorescence was recorded for 14 s. Initial iodide influx rate was determined from the initial slope of fluorescence decrease, by nonlinear regression, following infusion of iodide.

For assay [2], the target named is T1, ΔF508-CFTR. Kind of assay: Apical membrane current (Ussing chamber) in FRT cells expressing low temperature-rescued ΔF508-CFTR. Type of assay: cell-based. The arrangement: expressed in transfected cells; host or cells: Fisher rat thyroid (FRT) cells, co-expressing halide sensor YFP-H148Q/I152L; provided by Dr. Alan Verkman. Conditions: 20 μM forskolin. On the procedure: (§2) Snapwell inserts containing CFTR-expressing FRT and primary culture of human nasal epithelial cells were mounted in Ussing chambers (Physiologic Instruments, San Diego, CA). Forskolin, genistein, CP7q and CFTRinh-172 were added to the apical and basolateral bath solution. For FRT cells, the apical bath was filled with a half-Cl^- solution and the basolateral bath was filled with HCO3^—buffered solution, and the basolateral membrane was permeabilized with 250 μg/mL amphotericin B. For primary cultures of human nasal epithelial cells, symmetrical HCO3^—buffered solutions were used and ENaC was inhibited by pre-treatment with amiloride (100 μM). All cells were bathed for a 20 min stabilization period and aerated with 95% O2 / 5% CO2 at 37°C. Apical membrane current and short-circuit current were measured with an EVC4000 Multi-Channel V/I Clamp (World Precision Instruments, Sarasota, FL) and recorded using PowerLab 4/35 (AD Instruments, Castle Hill, Australia). Data were collected and analyzed with ADInstruments acquisition software Labchart Pro 7 software. The sampling rate was 4 Hz.

Assay [3] addresses T1, ΔF508-CFTR. Nature of the assay: Whole-cell patch-clamp in FRT cells expressing ΔF508-CFTR. In kind it is cell-based. Also noted: expressed in transfected cells; host or cells: Fisher rat thyroid (FRT) cells, co-expressing halide sensor YFP-H148Q/I152L; provided by Dr. Alan Verkman. The procedure:
Whole-cell patch-clamp recordings were performed on WT- or ΔF508-CFTR-expressing FRT cells. The bath solution contained (in mM): 140 NMDG-Cl, 1 CaCl2, 1 MgCl2, 10 glucose and 10 HEPES (pH 7.4). The pipette solution contained (in mM): 130 CsCl, 0.5 EGTA, 1 MgCl2, 1 Tris-ATP, and 10 HEPES (pH 7.2). Pipettes were pulled from borosilicate glass and had resistances of 3–5 MΩ after fire polishing. Seal resistances were between 3 and 10 GΩ. After establishing the whole-cell configuration, CFTR was activated by forskolin and/or CP7q. Whole-cell currents were elicited by applying hyperpolarizing and depolarizing voltage pulses from a holding potential of 0 mV to potentials between -80 mV and +80 mV in steps of 20 mV. Recordings were made at room temperature using an Axopatch-200B (Axon Instruments). Currents were digitized and analyzed using a Digidata 1440A converter (Axon Instruments), and pCLAMP 10.2 software (Molecular Devices, Sunnyvale, CA). Currents were low-pass filtered at 1 kHz and sampled at 5 kHz

The next assay concerns intracellular cAMP. Kind of assay: Cyclic AMP assay in FRT cells. Type of assay: cell-based, rat. Particulars: 10 μM CP7q. On the procedure: FRT cells grown on 12 well culture plates were washed 3 times with PBS at 37°C and then incubated in PBS at 37°C containing 100 μM IBMX for […] in the absence or presence of forskolin or CP7q. After 10 min incubation, the cells were washed with cold PBS and cytosolic cAMP was measured using a cAMP immunoassay kit (Parameter TM cAMP immunoassay kit, R&D Systems) according to the manufacturer's protocol.

Assay [4] concerns the target T2, WT-CFTR (Homo sapiens, UniProt P13569).
T2 construct: expressed in transfected cells; host or cells: Fisher rat thyroid (FRT) cells, co-expressing halide sensor YFP-H148Q/I152L; provided by Dr. Alan Verkman
Nature of the assay: Halide-sensitive YFP microplate reader assay of CFTR potentiation, WT-CFTR. In kind it is cell-based. Conditions: FRT cells, 0.1 μM forskolin. On the procedure:
as §1

Assay [5] addresses T1, ΔF508-CFTR. Nature of the assay: Apical membrane current of VX-809-rescued ΔF508-CFTR in FRT cells. The arrangement: expressed in transfected cells; host or cells: Fisher rat thyroid (FRT) cells, co-expressing halide sensor YFP-H148Q/I152L; provided by Dr. Alan Verkman. In kind it is cell-based. Conditions: 48 h, combined with 5 μM VX-809, 10 μM CP7q or 5 μM VX-770. On the procedure: as §2

Another assay addresses T3, CFTR (Homo sapiens, UniProt P13569).
T3 construct: endogenous in cells; host or cells: primary cultures of normal human nasal epithelial cells (provided by Dr. Jaeyoung Choi), passage 2, air-liquid interface
Kind of assay: Short-circuit current in primary cultures of normal human nasal epithelial cells. In kind it is cell-based. Conditions: 0.5 μM forskolin, amiloride pretreatment. The procedure: as §2

Assay [6] deals with T2, WT-CFTR. Kind of assay: Apical membrane current (Ussing chamber) in FRT cells expressing WT-CFTR. Type of assay: cell-based. The procedure: as §2

T1 sequence (P13569 with tags, fused parts or gaps DEL508-508): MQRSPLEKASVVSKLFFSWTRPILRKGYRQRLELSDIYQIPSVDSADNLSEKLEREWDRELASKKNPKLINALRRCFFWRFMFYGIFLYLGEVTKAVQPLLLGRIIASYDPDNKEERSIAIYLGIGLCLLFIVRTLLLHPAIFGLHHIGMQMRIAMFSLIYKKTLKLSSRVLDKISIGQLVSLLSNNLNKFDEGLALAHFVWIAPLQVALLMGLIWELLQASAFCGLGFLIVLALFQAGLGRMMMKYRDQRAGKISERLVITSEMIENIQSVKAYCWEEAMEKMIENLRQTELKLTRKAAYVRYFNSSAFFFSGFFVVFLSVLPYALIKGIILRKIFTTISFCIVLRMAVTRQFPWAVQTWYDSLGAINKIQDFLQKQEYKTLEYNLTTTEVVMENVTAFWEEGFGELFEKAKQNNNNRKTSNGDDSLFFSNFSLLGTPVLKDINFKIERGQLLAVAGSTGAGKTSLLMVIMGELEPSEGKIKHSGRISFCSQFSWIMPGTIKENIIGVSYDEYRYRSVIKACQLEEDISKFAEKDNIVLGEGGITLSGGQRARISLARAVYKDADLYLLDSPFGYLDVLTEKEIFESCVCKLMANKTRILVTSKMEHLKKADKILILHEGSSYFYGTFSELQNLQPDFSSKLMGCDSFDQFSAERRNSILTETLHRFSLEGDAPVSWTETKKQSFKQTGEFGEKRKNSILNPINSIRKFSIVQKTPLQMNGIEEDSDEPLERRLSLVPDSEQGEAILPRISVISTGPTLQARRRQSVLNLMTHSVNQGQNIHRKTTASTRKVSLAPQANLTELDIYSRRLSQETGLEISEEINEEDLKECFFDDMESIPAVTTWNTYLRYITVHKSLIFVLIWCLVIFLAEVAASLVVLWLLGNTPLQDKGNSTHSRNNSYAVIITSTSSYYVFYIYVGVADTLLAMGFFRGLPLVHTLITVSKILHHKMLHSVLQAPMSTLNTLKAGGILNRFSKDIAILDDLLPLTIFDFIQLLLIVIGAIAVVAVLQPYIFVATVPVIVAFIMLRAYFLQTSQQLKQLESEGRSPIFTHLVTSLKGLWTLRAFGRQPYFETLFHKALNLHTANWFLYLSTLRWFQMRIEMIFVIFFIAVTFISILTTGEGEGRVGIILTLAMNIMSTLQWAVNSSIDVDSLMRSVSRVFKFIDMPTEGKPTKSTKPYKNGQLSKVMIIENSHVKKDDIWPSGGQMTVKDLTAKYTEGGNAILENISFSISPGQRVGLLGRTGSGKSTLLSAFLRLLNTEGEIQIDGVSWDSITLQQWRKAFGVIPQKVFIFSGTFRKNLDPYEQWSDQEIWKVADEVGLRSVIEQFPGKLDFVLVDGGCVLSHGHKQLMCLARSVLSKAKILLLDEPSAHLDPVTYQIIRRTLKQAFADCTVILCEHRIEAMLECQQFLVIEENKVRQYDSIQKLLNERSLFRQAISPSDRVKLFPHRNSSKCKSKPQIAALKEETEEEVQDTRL
T3 sequence (P13569 whole entry): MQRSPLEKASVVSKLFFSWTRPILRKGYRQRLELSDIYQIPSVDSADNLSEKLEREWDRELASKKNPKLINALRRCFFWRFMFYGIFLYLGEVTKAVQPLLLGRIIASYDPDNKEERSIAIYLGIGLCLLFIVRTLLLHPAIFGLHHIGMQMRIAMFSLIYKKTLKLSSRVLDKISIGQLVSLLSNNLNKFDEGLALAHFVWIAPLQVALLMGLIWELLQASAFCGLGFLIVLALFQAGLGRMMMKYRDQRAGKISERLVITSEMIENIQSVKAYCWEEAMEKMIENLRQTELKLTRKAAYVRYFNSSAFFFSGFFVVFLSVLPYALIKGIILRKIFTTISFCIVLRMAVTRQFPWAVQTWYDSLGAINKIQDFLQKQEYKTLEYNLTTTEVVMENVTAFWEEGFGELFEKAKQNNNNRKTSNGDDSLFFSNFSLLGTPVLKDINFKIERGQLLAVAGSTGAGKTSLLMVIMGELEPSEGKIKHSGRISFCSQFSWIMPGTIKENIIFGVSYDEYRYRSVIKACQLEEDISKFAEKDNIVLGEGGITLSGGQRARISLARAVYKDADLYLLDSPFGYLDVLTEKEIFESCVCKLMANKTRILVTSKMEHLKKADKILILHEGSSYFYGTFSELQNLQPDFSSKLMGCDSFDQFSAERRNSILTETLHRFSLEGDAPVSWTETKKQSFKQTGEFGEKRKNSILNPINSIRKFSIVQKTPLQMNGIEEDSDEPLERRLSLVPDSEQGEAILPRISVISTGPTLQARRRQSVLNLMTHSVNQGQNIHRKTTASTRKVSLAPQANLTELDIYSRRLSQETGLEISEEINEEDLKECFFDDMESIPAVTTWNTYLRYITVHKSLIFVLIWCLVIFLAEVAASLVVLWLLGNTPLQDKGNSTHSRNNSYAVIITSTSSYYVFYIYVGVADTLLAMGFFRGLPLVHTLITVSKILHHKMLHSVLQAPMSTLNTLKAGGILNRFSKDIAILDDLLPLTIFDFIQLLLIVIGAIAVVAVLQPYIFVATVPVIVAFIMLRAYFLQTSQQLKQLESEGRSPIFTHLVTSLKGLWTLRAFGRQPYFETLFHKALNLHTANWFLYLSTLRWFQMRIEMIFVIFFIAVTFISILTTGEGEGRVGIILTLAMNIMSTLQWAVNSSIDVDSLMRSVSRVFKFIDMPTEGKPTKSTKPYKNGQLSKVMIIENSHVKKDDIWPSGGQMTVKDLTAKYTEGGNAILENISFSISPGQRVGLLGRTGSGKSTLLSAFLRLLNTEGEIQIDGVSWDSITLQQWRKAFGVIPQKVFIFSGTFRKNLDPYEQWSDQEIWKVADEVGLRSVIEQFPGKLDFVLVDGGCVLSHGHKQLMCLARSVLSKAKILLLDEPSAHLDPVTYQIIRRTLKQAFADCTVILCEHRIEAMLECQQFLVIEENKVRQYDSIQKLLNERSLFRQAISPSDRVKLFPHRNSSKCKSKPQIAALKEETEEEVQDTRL

Turning to `COc1ccc(C2CC(c3ccc(O)cc3O)=NN2c2ccc(S(N)(=O)=O)cc2)c(OC)c1` (centres unmarked) [Compound 7q, 4-[3-(2,4-dihydroxyphenyl)-5-(2,4-dimethoxyphenyl)-4,5-dihydro-1H-pyrazol-1-yl] benzenesulfonamide], the EC50 at ΔF508-CFTR [1] is 4.8 µM; on ΔF508-CFTR [2] (FRT cells, 27°C rescue 24 h), 4.45 µM and ~4.45 µM; at WT-CFTR [4], 0.9 µM; on WT-CFTR [6] (FRT-WT-CFTR cells, 0.1 μM forskolin), 0.88 µM and ~0.88 µM. In addition, the “Efficacy of ΔF508-CFTR potentiation compared with genistein” value on ΔF508-CFTR [2] (genistein 50 μM) is given as “slightly higher than that of genistein”. Also, the “Potentiation of whole-cell ΔF508-CFTR Cl- current” value at ΔF508-CFTR [3] (10 μM forskolin, 10 μM CP7q, 27°C rescue) was “significantly potentiated”. In addition, at ΔF508-CFTR [3] (whole cell patch-clamp, no forskolin), the “Activation of ΔF508-CFTR without forskolin stimulation” value was “did not activate”. Moreover, in the assay with intracellular cAMP, the “Effect on intracellular cAMP level” value is on record as “did not alter; also recorded: did not affect”. In addition, the “Effect on apical membrane current of VX-809-rescued ΔF508-CFTR” value at ΔF508-CFTR [5] is “strongly increased”. In addition, the “Potentiation of CFTR Cl- current (short-circuit current)” value on CFTR is recorded as “remarkably potentiated”. For the same compound, the “Maximum efficacy of CFTR potentiation compared with genistein” value on WT-CFTR [6] (WT-CFTR stimulated by 0.1 μM forskolin) was “significantly higher than that of genistein”.

By EC50 is commonly meant the concentration giving half of the maximal effect.
